Values after ≈ are worked out from the molar mass of the structure shown. Like-named read-outs stand apart in the source and are kept apart here.
Key:
P. vulgaris UC 93 = test: standard microplate test in BHI Agar (MIC), P. vulgaris UC 93; format: cell-based; settings: Proteus vulgaris, UC93, 20 h, read-out: Minimum Inhibitory Concentration, P. vulgaris UC 93
Summary of the method: (§1)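 A standard microplate test on Brain Heart Infusion agar is run with compound at 1 mg/ml, incubated at 37°, and scored at 20 hours.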

P. morgani UC 3186 = test: standard microplate test in BHI Agar (MIC), P. morgani UC 3186; format: cell-based; settings: 20 h, read-out: Minimum Inhibitory Concentration, P. morgani UC 3186, retest table, neamine control
Summary of the method: as §1

D. pneumoniae UC 41 = test: standard microplate test in BHI Agar (MIC), D. pneumoniae UC 41; format: cell-based; settings: Streptococcus pneumoniae, UC41, 20 h, read-out: Minimum Inhibitory Concentration, D. pneumoniae UC 41
Summary of the method: as §1

S. aureus UC 570 = test: standard microplate test in BHI Agar (MIC), S. aureus UC 570; format: cell-based; settings: Staphylococcus aureus, UC570, 20 h, 37°, first table, read-out: Minimum Inhibitory Concentration
Description: (§2) Compounds were also tested in a standard microplate test in Brain Heart Infusion (BHI) Agar, at a concentration of 1 mg/ml. Incubation is at 37° and end points are read at 20 hours. Brain Heart Infusion Agar (supplied by Difco Laboratories, Detroit, Michigan, U.S.A.) has the following composition: […]

S. schottmuelleri UC 126 = test: standard microplate test in BHI Agar (MIC), S. schottmuelleri UC 126; format: cell-based; settings: 20 h, read-out: Minimum Inhibitory Concentration
Description: Compounds were also tested in a standard microplate test in Brain Heart Infusion (BHI) Agar, at a concentration of 1 mg/ml. Incubation is at 37° and end points are read at 20 hours. Brain Heart Infusion Agar (supplied by Difco Laboratories, Detroit, Michigan, U.S.A.) has the following composition:
Compounds (7β), (7α) and (9) were tested again along with compounds (11) and (14β) against a neamine control using the same conditions as given above.

Ps. aeruginosa UC 95 = test: standard microplate test in BHI Agar (MIC), Ps. aeruginosa UC 95; format: cell-based; settings: Pseudomonas aeruginosa, UC95, 20 h, read-out: Minimum Inhibitory Concentration, Ps. aeruginosa UC 95
Summary of the method: as §1

K. pneumoniae UC 58 = test: standard microplate test in BHI Agar (MIC), K. pneumoniae UC 58; format: cell-based; settings: Klebsiella pneumoniae, UC58, 20 h, read-out: Minimum Inhibitory Concentration, K. pneumoniae UC 58
Summary of the method: as §1

S. hemolyticus UC 152 = test: standard microplate test in BHI Agar (MIC), S. hemolyticus UC 152; format: cell-based, Streptococcus hemolyticus; settings: Streptococcus pyogenes, UC152, 20 h, read-out: Minimum Inhibitory Concentration, S. hemolyticus UC 152
Summary of the method: as §1

E. coli UC 45 = test: standard microplate test in BHI Agar (MIC), E. coli UC 45; format: cell-based; settings: Escherichia coli, UC45, 20 h, read-out: Minimum Inhibitory Concentration, E. coli UC 45
Summary of the method: as §1

S. aureus UC 746 = test: standard microplate test in BHI Agar (MIC), S. aureus UC 746; format: cell-based; settings: Staphylococcus aureus, UC746, 20 h, 37°, first table, read-out: Minimum Inhibitory Concentration
Description: as §2

S. flexneri UC 143 = test: standard microplate test in BHI Agar (MIC), S. flexneri UC 143; format: cell-based; settings: retest table, neamine control
Summary of the method: as §1

S. typhi TG-3 = test: standard microplate test in BHI Agar (MIC), S. typhi TG-3; format: cell-based; settings: Salmonella enterica, 20 h, S. typhi TG-3, retest table, neamine control, read-out: Minimum Inhibitory Concentration
Summary of the method: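 Compounds were tested at 1 mg/ml in Brain Heart Infusion agar by microplate assay. Plates were incubated at 37° and end points read at 20 hours.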

S. marcescens UC 131 = test: standard microplate test in BHI Agar (MIC), S. marcescens UC 131; format: cell-based; settings: Serratia marcescens, UC131, 20 h, read-out: Minimum Inhibitory Concentration, S. marcescens UC 131, retest table, neamine control
Summary of the method: as §1

St. faecalis UC 694 = test: standard microplate test in BHI Agar (MIC), St. faecalis UC 694; format: cell-based; settings: Enterococcus faecalis, UC694, 20 h
Summary of the method: as §1

P. rettgeri UC 339 = test: standard microplate test in BHI Agar (MIC), P. rettgeri UC 339; format: cell-based; settings: Providencia rettgeri, UC339, 20 h, read-out: Minimum Inhibitory Concentration, P. rettgeri UC 339, retest table, neamine control
Summary of the method: as §1

S. aureus UC 76 = test: standard microplate test in BHI Agar (MIC), S. aureus UC 76; format: cell-based, Staphylococcus aureus; settings: Staphylococcus aureus, UC76, 20 h
Summary of the method: as §1

P. mirabilis A-63 = test: standard microplate test in BHI Agar (MIC), P. mirabilis A-63; format: cell-based
Summary of the method: as §1

[1] = BHI agar, 37°, 20 h, first table
[2] = BHI agar, 37°, 20 h, first table, *run on different day
[3] = retest table, group (7β), (14β), neamine control
[4] = retest table, group (9), (11), (7α), neamine control

NC[C@H]1O[C@H](O[C@H]2[C@H](O)[C@@H](O)[C@H](N)C[C@@H]2N)[C@H](N)[C@@H](O)[C@@H]1O [Neamine, reference compound]
MIC (P. vulgaris UC 93; [1]): 250 µg/mL (≈ 776 µM) | MIC (P. vulgaris UC 93; [2]): 125 µg/mL (≈ 388 µM) | MIC (P. vulgaris UC 93; [3]): 62.5 µg/mL (≈ 194 µM) | MIC (P. vulgaris UC 93; [4]): 15.6 µg/mL (≈ 48.4 µM) | MIC (P. morgani UC 3186; group (7β), (14β)): 62.5 µg/mL (≈ 194 µM) | MIC (P. morgani UC 3186; group (9), (11), (7α)): 31.2 µg/mL (≈ 96.8 µM) | MIC (D. pneumoniae UC 41; [1]): > 1000 µg/mL | MIC (D. pneumoniae UC 41; [2]): > 1000 µg/mL | MIC (D. pneumoniae UC 41; [3]): 31.2 µg/mL (≈ 96.8 µM) | MIC (D. pneumoniae UC 41; [4]): 62.5 µg/mL (≈ 194 µM) | MIC (S. aureus UC 570; *run on different day): 62.5 µg/mL (≈ 194 µM) | MIC (S. aureus UC 570): 250 µg/mL (≈ 776 µM) | MIC (S. schottmuelleri UC 126; BHI agar, 37°, first table, *run on different day): 62.5 µg/mL (≈ 194 µM) | MIC (S. schottmuelleri UC 126; BHI agar, 37°, first table): 62.5 µg/mL (≈ 194 µM) | MIC (S. schottmuelleri UC 126; [3]): 31.2 µg/mL (≈ 96.8 µM) | MIC (S. schottmuelleri UC 126; [4]): 62.5 µg/mL (≈ 194 µM) | MIC (Ps. aeruginosa UC 95; [1]): > 1000 µg/mL | MIC (Ps. aeruginosa UC 95; [2]): > 1000 µg/mL | MIC (Ps. aeruginosa UC 95; [3]): 1000 µg/mL (≈ 3100 µM) | MIC (Ps. aeruginosa UC 95; [4]): 1000 µg/mL (≈ 3100 µM) | MIC (K. pneumoniae UC 58; [1]): 7.8 µg/mL (≈ 24.2 µM) | MIC (K. pneumoniae UC 58; [2]): 15.6 µg/mL (≈ 48.4 µM) | MIC (K. pneumoniae UC 58; [3]): 3.9 µg/mL (≈ 12.1 µM) | MIC (K. pneumoniae UC 58; [4]): 7.8 µg/mL (≈ 24.2 µM) | MIC (S. hemolyticus UC 152; [1]): 3.9 µg/mL (≈ 12.1 µM) | MIC (S. hemolyticus UC 152; [2]): 7.8 µg/mL (≈ 24.2 µM) | MIC (S. hemolyticus UC 152; [3]): 3.9 µg/mL (≈ 12.1 µM) | MIC (S. hemolyticus UC 152; [4]): 2 µg/mL (≈ 6.2 µM) | MIC (E. coli UC 45; [1]): 62.5 µg/mL (≈ 194 µM) | MIC (E. coli UC 45; [2]): 125 µg/mL (≈ 388 µM) | MIC (E. coli UC 45; [3]): 62.5 µg/mL (≈ 194 µM) | MIC (E. coli UC 45; [4]): 62.5 µg/mL (≈ 194 µM) | MIC (S. aureus UC 746; *run on different day): 62.5 µg/mL (≈ 194 µM) | MIC (S. aureus UC 746): 250 µg/mL (≈ 776 µM) | MIC (S. flexneri UC 143; Shigella flexneri, UC143, 20 h, group (9), (11), (7α), read-out: Minimum Inhibitory Concentration): 62.5 µg/mL (≈ 194 µM) | Minimum Inhibitory Concentration (S. flexneri UC 143; group (7β), (14β)): 62.5 µg/mL | MIC (S. typhi TG-3; group (7β), (14β)): 15.6 µg/mL (≈ 48.4 µM) | MIC (S. typhi TG-3; group (9), (11), (7α)): 31.2 µg/mL (≈ 96.8 µM) | MIC (S. marcescens UC 131; group (7β), (14β)): 250 µg/mL (≈ 776 µM) | MIC (S. marcescens UC 131; group (9), (11), (7α)): 125 µg/mL (≈ 388 µM) | MIC (St. faecalis UC 694; read-out: Minimum Inhibitory Concentration, S. faecalis UC 694, retest table, group (7β), (14β), neamine control): 500 µg/mL (≈ 1550 µM) | MIC (St. faecalis UC 694; read-out: Minimum Inhibitory Concentration, S. faecalis UC 694, retest table, group (9), (11), (7α), neamine control): 500 µg/mL (≈ 1550 µM) | MIC (St. faecalis UC 694; read-out: Minimum Inhibitory Concentration, St. faecalis UC 694, BHI agar, 37°, 20 h, first table): 1000 µg/mL (≈ 3100 µM) | MIC (St. faecalis UC 694; read-out: Minimum Inhibitory Concentration, St. faecalis UC 694, BHI agar, 37°, 20 h, first table, *run on different day): 500 µg/mL (≈ 1550 µM) | MIC (P. rettgeri UC 339; group (7β), (14β)): 1000 µg/mL (≈ 3100 µM) | MIC (P. rettgeri UC 339; group (9), (11), (7α)): 500 µg/mL (≈ 1550 µM) | MIC (S. aureus UC 76; read-out: Minimum Inhibitory Concentration, S. aureus 284 UC 76, BHI agar, 37°, 20 h, first table): 125 µg/mL (≈ 388 µM) | MIC (S. aureus UC 76; read-out: Minimum Inhibitory Concentration, S. aureus 284 UC 76, BHI agar, 37°, 20 h, first table, *run on different day): 62.5 µg/mL (≈ 194 µM) | MIC (S. aureus UC 76; read-out: Minimum Inhibitory Concentration, S. aureus UC 76, retest table, group (7β), (14β), neamine control): 31.2 µg/mL (≈ 96.8 µM) | MIC (S. aureus UC 76; read-out: Minimum Inhibitory Concentration, S. aureus UC 76, retest table, group (9), (11), (7α), neamine control): 31.2 µg/mL (≈ 96.8 µM) | Minimum Inhibitory Concentration (P. mirabilis A-63; P. mirabilis A-63, retest table, group (7β), (14β), neamine control): 250 µg/mL | MIC (P. mirabilis A-63; Proteus mirabilis, A63, 20 h, read-out: Minimum Inhibitory Concentration): 250 µg/mL (≈ 776 µM)
